According to US20240262842A1, “SMALL MOLECULE INHIBITORS OF KRAS G12C MUTANT” (Merck Sharp & Dohme LLC, priority 2021, published 2024):
Read-outs that look alike come from different tables or passages of the source.

Tests used:
[1] = molecular target: T1, interaction between GMPPNP-bound recombinant K-Ras4B G12C mutant protein and cRAF RAS-binding domain (cRAF-RBD) (Homo sapiens, UniProt P01116, G12C); assay: Inhibitory activity on interaction between KRAS G12C and cRAF (Alpha technology); settings: Table 2-1
T1 construct: His-tag (N)
T1 sequence (P01116 with tags, fused parts or gaps isoform P01116-2 G12C): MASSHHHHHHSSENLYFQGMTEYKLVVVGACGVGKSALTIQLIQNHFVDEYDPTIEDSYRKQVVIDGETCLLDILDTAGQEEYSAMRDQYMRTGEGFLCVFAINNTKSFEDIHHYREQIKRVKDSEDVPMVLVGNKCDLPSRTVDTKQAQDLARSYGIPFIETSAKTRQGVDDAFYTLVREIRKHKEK
Outline: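 His-tagged K-Ras4B G12C (aa 1-169), GMPPNP-loaded, preincubated with compound 1 h at 25° C in pH 7.5 Tris buffer with MgCl2, TCEP, Tween 20. cRAF-RBD (aa 50-132) and Alpha reagents then added for 1.5 h; Alpha signal normalised to DMSO (0%) and GDP-bound KRAS (100%); IC50 from dose titration.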

[2] = system: MIA PaCa-2 cells; assay: Growth inhibition activity on KRAS-G12C mutant cell line (CellTiter-Glo 3D); type: cell-based, human; settings: MIA PaCa-2, 3-day culture with compound, Table 3-1
Outline: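 MIA PaCa-2 cells in RPMI1640 with 10% FBS, U-bottom wells, cultured 1 day before compound (0.2% DMSO final), then 3 days at 37 °C, 5% CO2. Viability by CellTiter-Glo 3D luminescence; growth inhibition versus untreated wells gives IC50 (nM).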

[3] = GMPPNP-bound KRAS G12C incubated with compound 25° C. 1 hour, read-out: IC50
[4] = IC50, GMPPNP-bound KRAS G12C incubated with compound 25° C. 1 hour

| SMILES | IC50 [1, 3] [nM] | IC50 ([2]; Homo sapiens, MIA PaCa-2, 72 h) [nM] | IC50 [1, 4] [nM] | IC50 [2] [nM] |
| --- | --- | --- | --- | --- |
| CCNC/C=C/C(=O)Nc1c(F)cc(C(=O)c2cc3c4c(cccn24)-c2c(C(F)(F)F)cc4c(ncn4C)c2N(C)CC3)cc1F [Example 111, (E)-N-(4-(9,12-dimethyl-7-(trifluoromethyl)-9,12,13,14-tetrahydro-imidazo[4″,5″:5′,6′]benzo-[1′,2′:2,3]azocino[4,5,6-hi]indolizine-2-carbonyl)-2,6-difluorophenyl)-4-(ethylamino)but-2-enamide] | 31.3 | 8.95 | – | – |
| CN1CCc2cc(C(=O)c3cc(F)c(NC(=O)/C=C/CNCC(C)(C)O)c(F)c3)n3cccc(c23)-c2c(C(F)(F)F)cc3c(ncn3C)c21 [Example 112, (E)-N-(4-(9,12-dimethyl-7-(trifluoromethyl)-9,12,13,14-tetrahydro-imidazo[4″,5″:5′,6′]benzo-[1′,2′:2,3]azocino[4,5,6-hi]indolizine-2-carbonyl)-2,6-difluorophenyl)-4-((2-hydroxy-2-methylpropyl)-amino)but-2-enamide] | 29.2 | 10.1 | – | – |
| CN1CCc2cc(C(=O)c3cc(F)c(NC(=O)/C=C/CNCC(C)(C)CO)c(F)c3)n3cccc(c23)-c2c(C(F)(F)F)cc3c(ncn3C)c21 [Example 113, (E)-N-(4-(9,12-dimethyl-7-(trifluoromethyl)-9,12,13,14-tetrahydro-imidazo[4″,5″:5′,6′]benzo-[1′,2′:2,3]azocino[4,5,6-hi]indolizine-2-carbonyl)-2,6-difluorophenyl)-4-((3-hydroxy-2,2-dimethyl-propyl)amino)but-2-enamide] | 29.6 | 10.6 | – | – |
| Cc1cc2c(nc(C)n2C)c2c1-c1cccc3c(C(=O)c4cc(F)c(NC(=O)/C=C/CN5CCC[C@H]5CO)c(F)c4)cn(c13)CCN2C [Example 114, (S,E)-N-(2,6-difluoro-4-(6,8,9,11-tetramethyl-8,11,12,13-tetrahydro-imidazo[4″,5″:5′,6′]benzo-[1′,2′:5,6][1,4]diazocino-[7,8,1-hi]indole-2-carbon-yl)phenyl)-4-(2-(hydroxy-methyl)pyrrolidin-1-yl)-but-2-enamide] | – | 64.5 | 61.1 | – |
| Cc1cc2c(ncn2C)c2c1-c1cccn3c(C(=O)c4cc(F)c(NC(=O)/C=C/CNC5(C)CC5)c(F)c4)cc(c13)CCN2C [Example 115, (E)-N-(2,6-difluoro-4-(7,9,12-trimethyl-9,12,13,14-tetrahydro-imidazo[4″,5″:5′,6′]benzo-[1′,2′:2,3]azocino[4,5,6-hi]indolizine-2-carbon-yl)phenyl)-4-((1-methyl-cyclopropyl)amino)but-2-enamide] | 38.9 | 61.3 | – | – |
| Cc1cc2c(ncn2C)c2c1-c1cccn3c(C(=O)c4cc(F)c(NC(=O)/C=C/CNC5(C)CCOCC5)c(F)c4)cc(c13)CCN2C [Example 116] | 26.6 | 29.9 | – | – |
| COCc1nc2c3c(c(C(F)(F)F)cc2n1C)-c1cccn2c(C(=O)c4cc(F)c(NC(=O)/C=C/CN[C@H]5CCOC5)c(F)c4)cc(c12)CCO3 [Example 118, (S,E)-N-(2,6-difluoro-4-(10-(methoxymethyl)-9-methyl-7-(trifluorometh-yl)-13,14-dihydro-9H-imidazo[4″,5″:5′,6′]benzo-[1′,2′:2,3]oxocino[4,5,6-hi]indolizine-2-carbonyl)-phenyl)-4-((tetrahydro-furan-3-yl)amino)but-2-enamide] | 12.6 | 4.2 | – | – |
| Cc1cc2c(nc(C)n2C)c2c1-c1cccc3c(C(=O)c4cc(F)c(NC(=O)/C=C/CNC56CCC(CC5)OC6)c(F)c4)cn(c13)CCN2C [Example 119, (E)-4-((2-oxabicyclo-[2.2.2]octan-4-yl)amino)-N-(2,6-difluoro-4-(6,8,9,11-tetramethyl-8,11,12,13-tetrahydro-imidazo[4″,5″:5′,6′]benzo-[1′,2′:5,6][1,4]diazocino-[7,8,1-hi]indole-2-carbon-yl)phenyl)but-2-enamide] | – | – | 16.9 | 9.39 |
| Cn1cnc2c3c(c(C(F)(F)F)cc21)-c1cccn2c(C(=O)c4cc(F)c(NC(=O)C=CCNC5CCOC5)c(F)c4)cc(c12)CCO3 [Example 120, (S,E)-N-(2,6-difluoro-4-(9-methyl-7-(trifluoromethyl)-13,14-dihydro-9H-imidazo[4″,5″:5′,6′]benzo[1′,2′:2,3]oxocino[4,5,6-bi]indolizine-2-carbonyl)phenyl)-4-((tetrahydrofuran-3-yl)amino)but-2-enamide] | 5.59 | 6.52 | – | – |
| COc1cc2c(nc(C)n2C)c2c1-c1cccn3c(C(=O)c4cc(F)c(NC(=O)/C=C/CNC56CCC(CC5)OC6)c(F)c4)cc(c13)CCN2C [Example 121] | 23 | 26.4 | – | – |
| Cc1cc2c(nc(C)n2C)c2c1-c1cccc3c(C(=O)c4cc(F)c(NC(=O)/C=C/CN5CCC[C@H]5C(C)(C)O)c(F)c4)cn(c13)CCN2C [Example 122, (S,E)-N-(2,6-difluoro-4-(6,8,9,11-tetramethyl-8,11,12,13-tetrahydro-imidazo[4″,5″:5′,6′]benzo-[1′,2′:5,6][1,4]diazocino-[7,8,1-hi]indole-2-carbon-yl)phenyl)-4-(2-(2-hydroxypropan-2-yl)-pyrrolidin-1-yl)but-2-enamide] | – | 88.2 | 54.1 | – |
| Cc1cc2c(nc(C)n2C)c2c1-c1cccc3c(C(=O)c4cc(F)c(NC(=O)/C=C/CNC5CCOC5(C)C)c(F)c4)cn(c13)CCN2C (stereo not drawn) [Example 123, (E)-N-(2,6-difluoro-4-(6,8,9,11-tetramethyl-8,11,12,13-tetrahydro-imidazo[4″,5″:5′,6′]benzo-[1′,2′:5,6][1,4]diazocino-[7,8,1-hi]indole-2-carbon-yl)phenyl)-4-((2,2-dimeth-yltetrahydrofuran-3-yl)-amino)but-2-enamide] | – | 35 | 41.8 | – |
| Cc1cc2c(nc(C)n2C)c2c1-c1cccc3c(C(=O)c4cc(F)c(NC(=O)/C=C/CNC5COC(C)(C)C5)c(F)c4)cn(c13)CCN2C (stereo not drawn) [Example 124, (E)-N-(2,6-difluoro-4-(6,8,9,11-tetramethyl-8,11,12,13-tetrahydro-imidazo[4″,5″:5′,6′]benzo-[1′,2′:5,6][1,4]diazocino-[7,8,1-hi]indole-2-carbon-yl)phenyl)-4-((5,5-dimeth-yltetrabydrofuran-3-yl)-amino)but-2-enamide] | – | 13.7 | 13 | – |
| Cn1cnc2c3c(c(C(F)(F)F)cc21)-c1cccn2c(C(=O)c4cc(F)c(NC(=O)/C=C/CNC56CCC(CC5)OC6)c(F)c4)cc(c12)CCO3 [Example 125] | 3.75 | 9.06 | – | – |
| COCCNC/C=C/C(=O)Nc1c(F)cc(C(=O)c2cc3c4c(cccn24)-c2c(C(F)(F)F)cc4c(ncn4C)c2N(C)CC3)cc1F [Example 126, (E)-N-(4-(9,12-dimethyl-7-(trifluoromethyl)-9,12,13,14-tetrahydro-imidazo[4″,5″:5′,6′]benzo-[1′,2′:2,3]azocino[4,5,6-hi]indolizine-2-carbonyl)-2,6-difluorophenyl)-4-((2-methoxyethyl)amino)but-2-enamide] | 18 | 14.3 | – | – |
| COCC1(NC/C=C/C(=O)Nc2c(F)cc(C(=O)c3cc4c5c(cccn35)-c3c(C(F)(F)F)cc5c(ncn5C)c3N(C)CC4)cc2F)CCCC1 [Example 127, (E)-N-(4-(9,12-dimethyl-7-(trifluoromethyl)-9,12,13,14-tetrahydro-imidazo[4″,5″:5′,6′]benzo-[1′,2′:2,3]azocino[4,5,6-hi]indolizine-2-carbonyl)-2,6-difluorophenyl)-4-((1-(methoxymethyl)cyclo-pentyl)amino)but-2-en-amide] | 16.8 | 22.5 | – | – |
| COC[C@H](CO)NC/C=C/C(=O)Nc1c(F)cc(C(=O)c2cc3c4c(cccn24)-c2c(C(F)(F)F)cc4c(ncn4C)c2N(C)CC3)cc1F [Example 128, (S,E)-N-(4-(9,12-dimeth-yl-7-(trifluoromethyl)-9,12,13,14-tetrahydro-imidazo[4″,5″:5′,6′]benzo-[1′,2′:2,3]azocino[4,5,6-hi]indolizine-2-carbonyl)-2,6-difluorophenyl)-4-((1-hydroxy-3-methoxy-propan-2-yl)amino)but-2-enamide] | 18.8 | 11.8 | – | – |
| CC1Cc2cc(C(=O)c3cc(F)c(NC(=O)/C=C/CNC4(C)COC4)c(F)c3)n3cccc(c23)-c2c(C(F)(F)F)cc3c(ncn3C)c2O1 (stereo not drawn) [Example 130, (E)-N-(4-(9,13-dimethyl-7-(trifluoromethyl)-13,14-dihydro-9H-imidazo[4″,5″:5′,6′]benzo[1′,2′:2,3]oxocino[4,5,6-hi]indolizine-2-carbonyl)-2,6-difluorophenyl)-4-((3-methyloxetan-3-yl)amino)but-2-enamide] | 41.4 | 82.8 | – | – |
| Cc1cc2c(nc(C)n2C)c2c1-c1cccc3c(C(=O)c4cc(F)c(NC(=O)/C=C/CN5CC[C@H]5CO)c(F)c4)cn(c13)CCN2C [Example 132, (S,E)-N-(2,6-difluoro-4-(6,8,9,11-tetramethyl-8,11,12,13-tetrahydro-imidazo[4″,5″:5′,6′]-benzo[1′,2′:5,6][1,4]-diazocino[7,8,1-hi]indole-2-carbonyl)phenyl)-4-(2-(hydroxymethyl)azetidin-1-yl)but-2-enamide] | – | 16.7 | 10.8 | – |
| COc1cc2c(nc(C)n2C)c2c1-c1cccn3c(C(=O)c4cc(F)c(NC(=O)/C=C/CN[C@@H]5CCCOC5)c(F)c4)cc(c13)CCN2C [Example 133] | 11.4 | 6.45 | – | – |
| Cc1cc2c(ncn2C)c2c1-c1cccn3c(C(=O)c4cc(F)c(NC(=O)/C=C/CNC56CCC(CC5)OC6)c(F)c4)cc(c13)CCN2C [Example 134] | 31 | 244 | – | – |
